Reference: the supplement of paper PMC10627819

Assays:
[1] = test system: S. pneumoniae D39V; assay: fitness (endpoint OD595 vs no drug) (fraction); higher = more growth
How it was run: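 Plates with 384 wells were inoculated at OD595 0.01 using 30 µl of TSB, LB Lennox or CY, or 55 µl for S. pneumoniae. Incubation was at 37 °C, with OD595 measured every 30 min for 14 h. Fitness is the stationary-phase transition optical density over the robust mean of no-drug control wells, after first-reading background subtraction; it is capped at 1.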

[2] = test system: B. subtilis 168; assay: Bliss interaction score (quartile over a dose matrix) (fitness difference); higher = more antagonism (negative = synergy)
How it was run: (§1)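 Fitness was OD595 at entry into stationary phase divided by the plate's robust no-drug mean and capped at 1; single-drug fitness was inferred from combination data. The Bliss score is observed minus expected (product) fitness, summarised by quartiles over technical, biological and donor/recipient replicates.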

[3] = test system: S. aureus DSM 20231; assay: as above
How it was run: as §1

[4] = test system: S. aureus Newman; assay: as above
How it was run: as §1

[5] = test system: S. pneumoniae D39V; assay: as above
How it was run: as §1
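For Bliss interaction score (quartile over a dose matrix) in this document: first quartile when negative (synergy) and third quartile when positive (antagonism).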

CCC[C@@H]1C[C@@H](C(=O)N[C@@H]([C@H]2O[C@H](SC)[C@H](O)[C@@H](O)[C@H]2O)[C@@H](C)O)N(C)C1 [Lincomycin] + C/C(=C\C(=O)OCCCCCCCCC(=O)O)C[C@@H]1OC[C@H](C[C@@H]2O[C@H]2[C@@H](C)[C@H](C)O)[C@@H](O)[C@H]1O [Pseudomonic acid]
fitness, [1]
Settings	first compound 0.2 µg/mL	first compound 0.215 µg/mL	first compound 0.4 µg/mL	first compound 0.43 µg/mL	first compound 0.8 µg/mL	first compound 0.86 µg/mL
partner 0.03 µg/mL	0.649	0.828	–	0.633	0.121	0.177
partner 0.06 µg/mL	–	–	0.206	–	0.0533	0.142
partner 0.12 µg/mL	0.179	–	0.156	–	0.0889	0.12

Settings	Bliss interaction score
[2]	-0.0308
[3]	0.0155
[4]	0.031
[5]	-0.269

C[C@@H](O)[C@H]1C(=O)N2C(C(=O)O)=C(SCCNC=N)C[C@H]12 [Imipenem] + Cc1cc(NS(=O)(=O)c2ccc(N)cc2)no1 [Sulfamethoxazol]
fitness, [1], one replicate
Settings	first compound 0.005 µg/mL	first compound 0.01 µg/mL	first compound 0.02 µg/mL
partner 1 µg/mL	0.993	0.998	0.959
partner 2 µg/mL	0.957	0.924	0.982
partner 4 µg/mL	0.879	0.856	0.859

fitness, [1]
Settings	first compound 0.0065 µg/mL	first compound 0.013 µg/mL	first compound 0.026 µg/mL
partner 1 µg/mL	0.96	0.923	0.82
partner 2 µg/mL	0.976	0.932	0.925
partner 4 µg/mL	0.976	0.941	0.917

Settings	Bliss interaction score
[2]	0.0891
[3]	-0.0317
[4]	-0.0488
[5]	0.066

CCC[C@@H]1C[C@@H](C(=O)N[C@@H]([C@H]2O[C@H](SC)[C@H](O)[C@@H](O)[C@H]2O)[C@@H](C)O)N(C)C1 [Lincomycin] + O=C1CN(/N=C/c2ccc([N+](=O)[O-])o2)C(=O)N1 [Nitrofurantoin]
fitness, [1]
Settings	first compound 0.2 µg/mL	first compound 0.215 µg/mL	first compound 0.4 µg/mL	first compound 0.43 µg/mL	first compound 0.8 µg/mL	first compound 0.86 µg/mL
partner 1.285 µg/mL	0.718	–	0.677	–	0.281	–
partner 2 µg/mL	–	0.753	–	0.681	–	0.392
partner 2.57 µg/mL	0.775	–	0.716	–	0.266	–
partner 4 µg/mL	–	0.763	–	0.7	–	0.358
partner 8 µg/mL	–	0.711	–	0.381	–	0.141

[1], partner 5.14 µg/mL, one replicate
Settings	fitness
first compound 0.2 µg/mL	0.768
first compound 0.4 µg/mL	0.633
first compound 0.8 µg/mL	0.189

Settings	Bliss interaction score
[2]	0.163
[3]	-0.0943
[4]	-0.101
[5]	-0.118
